Assay results: article PMC7483518, “Destabilizing single chain major histocompatibility complex class I protein for repurposed enterokinase proteolysis” (Scientific Reports, 2020)
Like-named read-outs stand apart in the source and are kept apart here.

Legend:
[1] = system: HLA-A*11:01 single chain protein; type: biochemical, Human; design: EZ50kDa / EZ50kD (pH 6.2) / EZ50kD (pH 8) / EZ50kD (normalised: EBV1101 = 1, EBV0201 = 0) / EZ50kDa rank: unit not given beside the values;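 for EZ50kD (pH 6.2): scaled with positive control peptide as 1 and negative control peptide as 0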
[2] = biological target: photolabile unchained HLA-A*11:01 pMHC-I protein (Homo sapiens, UniProt P04439, A114D/D185E/E176A/F33Y/L180Q/S129P/T187R); assay: ELISA with photolabile unchained pMHC-I protein and UV irradiation; type: binding
[3] = biological target: T1, photo-labile unchained HLA-A*11:01 MHC-I protein (Homo sapiens, UniProt P04439, A114D/D185E/E176A/F33Y/L180Q/S129P/T187R); assay: Photo-labile unchained MHC-I protein treated with UV, peptides and enterokinase (SDS-PAGE band volume); type: biochemical
T1 construct: made in house

[4] = mean Adj. Volume of the 2 replicates
[5] = mean of the 2 replicates of EZ50kD
[6] = EASY MHC-I A*11:01, 2019-07-25, mean of the 2 replicates
[7] = EASY MHC-I A*11:01, 2019-07-26, mean of the 2 replicates
[8] = EASY MHC-I A*11:01, 2019-08-01, mean of the 2 replicates
[9] = EASY MHC-I A*11:01, run 2019-08-06, 5min, mean of 2 replicates
[10] = EASY MHC-I A*11:01, run 2019-08-07, 5min, mean of 2 replicates
[11] = EASY MHC-I A*11:01, run 2019-08-08, 5min, mean of 2 replicates
[12] = Table 2, pH 6.2, 37 °C, enterokinase, Eq. (4), instability cutoff < 0.3
[13] = Table 2, 62.5 nM photolabile pMHC-I mixture, 5 μM peptide in PBS, UV 365 nm 2 × 5 min on ice, 2 h room temperature on anti-β2m plate, Abs450nm − Abs570nm, instability cutoff < 0.6
[14] = EASY MHC-I A*11:01, gel 2019-07-17 lr1028-1036 5min, replicate 1 (lanes 1-14)
[15] = EASY MHC-I A*11:01, gel 2019-07-17 lr1028-1036 5min, replicate 2 (lanes 15-28)
[16] = EASY MHC-I A*11:01, gel 2019-07-24 lr1046_ex1004 5min, replicate 1 (lanes 1-14)
[17] = EASY MHC-I A*11:01, gel 2019-07-24 lr1046_ex1004 5min, replicate 2 (lanes 15-28)

FGSLLDYVREHK [CS1048]
vol [1, 4]: 7729416 | Batch Mean [1, 5]: 0.09362 | EASY_mean [2]: 0.1889 | vol [3, 4]: 12972708 | Batch Mean [3, 5]: 0.7597

PFGSLLDY [CS1005]
EZ_mean [1]: -0.07269 | EASY_mean [2]: -0.004417

PFGSLLDYVR [CS1024]
EZ_mean [1]: -0.007587 | EASY_mean [2]: 0.06666

PVAIKTSPKA [EX1010]
EZ_mean [1, 6]: -0.04257 | EASY_mean ([2]; […], mean, STDEV): -0.007707

PVAIKTSPKAN [EX1017]
EZ_mean [1, 7]: -0.1176 | EASY_mean ([2]; ELISA signal, mean, […]): -0.01335

PVAIKTSPKANK [EX1025]
EZ_mean [1, 8]: -0.1057 | EASY_mean [2]: -0.00741

QLIMQLMP [TM1005]
EZ_mean [1, 9]: -0.1114 | EASY_mean ([2]; ELISA signal, mean, […]): -0.03905

QLIMQLMPF [TM1014]
EZ_mean [1, 10]: -0.09931 | EASY_mean ([2]; […], mean, STDEV): -0.03038

QLIMQLMPFG [TM1024]
EZ_mean [1, 11]: -0.01105 | Norm_mean [1, 11]: 0.009219 | EASY_mean ([2]; ELISA signal, mean, […]): -0.01897

QLIMQLMPFGC [TM1035]
EZ_mean [1]: -0.1197 | EASY_mean ([2]; ELISA signal, mean, […]): -0.06893

QLIMQLMPFGCL [TM1047]
EZ_mean [1]: -0.1111 | EASY_mean [2]: -0.05287

QLITQLMPFGS [CS1028]
EZ_mean [1]: -0.07904 | EASY_mean [2]: -0.02964

QLITQLMPFGSL [CS1040]
EZ_mean [1]: -0.03735 | EASY_mean [2]: -0.0163

QLMPFGSLLD [CS1021]
EZ_mean [1]: -0.06288 | EASY_mean [2]: 0.0006677

RAKLLGAE [LR1008]
EZ_mean [1]: -0.05335 | EASY_mean ([2]; […], mean, STDEV): -0.01564

RAKLLGAEE [LR1017]
EZ_mean [1]: -0.04971 | EASY_mean ([2]; […], mean, STDEV): -0.0266

RAKLLGAEEKE [LR1038]
EZ_mean [1]: -0.07295 | EASY_mean [2]: -0.00823

RAKLLGAEEKEY [LR1050]
EZ_mean [1]: 0.007797 | EASY_mean [2]: 0.01434

RSFKDLLKK [reference compound]
EZ50kD (pH 6.2) ([1]; pH 6.2): 0.6092 | ELISA450nm [2]: 1.682

SLLDYVRE [CS1008]
EZ_mean [1]: -0.06325 | EASY_mean [2]: -0.02238

SLLDYVREHKD [CS1038]
EZ_mean [1]: -0.03388 | EASY_mean [2]: -0.01097

SSCSSCPLSK [reference compound]
EZ50kD (pH 6.2) [1, 12]: 0.6649 | EZ50kD (pH 6.2) ([1]; pH 6.2): 0.9576 | EZ50kD (pH 8) ([1]; pH 8): 0.8409 | ELISA450nm [2, 13]: 1.272

STIPETTVVR [putative peptide, HBV, no IEDB entry]
EZ50kD (pH 6.2) [1, 12]: 0.3226 | ELISA450nm [2, 13]: 1.391

STVQLIMQ [TM1002]
EZ_mean [1, 9]: -0.09047 | EASY_mean ([2]; […], mean, STDEV): -0.02917

STVQLIMQLM [TM1021]
EZ_mean [1, 11]: -0.03318 | Norm_mean [1, 11]: -0.01917 | EASY_mean ([2]; […], mean, STDEV): -0.01593

STVQLIMQLMP [TM1032]
EZ_mean [1]: -0.1174 | EASY_mean ([2]; ELISA signal, mean, […]): -0.06602

STVQLIMQLMPF [TM1043]
EZ_mean [1]: -0.1271 | EASY_mean ([2]; […], mean, STDEV): -0.05995

TDFGRAKL [LR1004]
EZ_mean [1]: -0.05517 | EASY_mean ([2]; […], mean, STDEV): -0.01664

TDFGRAKLL [LR1013]
EZ_mean [1]: -0.005317 | EASY_mean ([2]; […], mean, STDEV): -0.002506

TDFGRAKLLG [LR1023]
EZ_mean [1]: -0.0651 | EASY_mean ([2]; […], mean, STDEV): -0.02398

TDFGRAKLLGA [LR1034]
EZ_mean ([1]; EASY MHC-I A*11:01, gel 2019-07-17 lr1028-1036 5min, mean of 2 replicates): -0.04886 | EZ50kD (normalised: EBV1101 = 1, EBV0201 = 0) [1, 14]: -0.06534 | Norm (50 kDa band adj. volume normalised: Undig_37C = 1, Dig_37C = 0) [1, 14]: -0.06378 | EZ50kD (normalised: EBV1101 = 1, EBV0201 = 0) [1, 15]: -0.03237 | Norm (50 kDa band adj. volume normalised: Undig_37C = 1, Dig_37C = 0) [1, 15]: -0.02825 | EASY_mean [2]: -0.04602

TDFGRAKLLGAE [LR1046]
EZ_mean ([1]; EASY MHC-I A*11:01, gel 2019-07-24 lr1046_ex1004 5min, mean of 2 replicates): -0.05291 | EZ50kD (normalised: EBV1101 = 1, EBV0201 = 0) [1, 16]: -0.04519 | Norm (50 kDa band adj. volume normalised: Undig_37C = 1, Dig_37C = 0) [1, 16]: -0.03888 | EZ50kD (normalised: EBV1101 = 1, EBV0201 = 0) [1, 17]: -0.06064 | Norm (50 kDa band adj. volume normalised: Undig_37C = 1, Dig_37C = 0) [1, 17]: 0.001098 | EASY_mean [2]: -0.01889

TQLMPFGS [CS1001]
EZ_mean [1]: -0.06222 | EASY_mean [2]: 0.00928

TQLMPFGSL [CS1010]
EZ_mean [1]: -0.05322 | EASY_mean [2]: -0.009401

TQLMPFGSLLD [CS1031]
EZ_mean [1]: -0.07663 | EASY_mean [2]: -0.03382

TQLMPFGSLLDY [CS1043]
EZ_mean [1]: -0.01577 | EASY_mean [2]: 0.01363

TSPKANKE [EX1004]
EZ_mean [1]: -0.03458 | EASY_mean [2]: -0.008845

TSPKANKEI [EX1009]
EZ_mean [1, 6]: -0.03775 | EASY_mean ([2]; […], mean, STDEV): -0.005092

TSPKANKEIL [EX1015]
EZ_mean [1, 7]: -0.1061 | EASY_mean ([2]; […], mean, STDEV): -0.004833

TSPKANKEILD [EX1022]
EZ_mean [1, 7]: -0.1213 | EASY_mean ([2]; ELISA signal, mean, […]): -0.01584

TSPKANKEILDE [EX1030]
EZ_mean [1, 8]: -0.138 | EASY_mean [2]: -0.0262

TSTVQLIM [TM1001]
EZ_mean [1, 9]: -0.08359 | EASY_mean ([2]; […], mean, STDEV): -0.02312

TSTVQLIMQ [TM1010]
EZ_mean [1, 10]: -0.07795 | EASY_mean ([2]; […], mean, STDEV): -0.01875

TSTVQLIMQL [TM1020]
EZ_mean [1, 11]: -0.0424 | Norm_mean [1, 11]: -0.03086 | EASY_mean ([2]; […], mean, STDEV): -0.02933

TSTVQLIMQLM [TM1031]
EZ_mean [1]: -0.09739 | EASY_mean ([2]; […], mean, STDEV): -0.04936

TSTVQLIMQLMP [TM1042]
EZ_mean [1]: -0.1051 | EASY_mean ([2]; ELISA signal, mean, […]): -0.04181

TVMDIISRR [reference compound]
EZ50kD (pH 6.2) [1, 12]: 1.086 | ELISA450nm [2, 13]: 1.944

TVQLIMQL [TM1003]
EZ_mean [1, 9]: -0.09825 | EASY_mean ([2]; […], mean, STDEV): -0.03257

TVQLIMQLM [TM1012]
EZ_mean [1, 10]: -0.1032 | EASY_mean ([2]; […], mean, STDEV): -0.03295

TVQLIMQLMP [TM1022]
EZ_mean [1, 11]: -0.0531 | Norm_mean [1, 11]: -0.04425 | EASY_mean ([2]; ELISA signal, mean, […]): -0.01505

TVQLIMQLMPF [TM1033]
EZ_mean [1]: -0.1125 | EASY_mean ([2]; […], mean, STDEV): -0.06339

TVQLIMQLMPFG [TM1044]
EZ_mean [1]: -0.09806 | EASY_mean ([2]; ELISA signal, mean, […]): -0.03569

VAIKTSPKA [EX1005]
EZ_mean [1, 6]: -0.02025 | EASY_mean ([2]; […], mean, STDEV): 0.004482

VAIKTSPKAN [EX1011]
EZ_mean [1, 6]: -0.03763 | EASY_mean ([2]; ELISA signal, mean, […]): -0.005285

VAIKTSPKANKE [EX1026]
EZ_mean [1, 8]: -0.1295 | EASY_mean [2]: -0.02113

VQLIMQLM [TM1004]
EZ_mean [1, 9]: -0.1305 | EASY_mean ([2]; […], mean, STDEV): -0.05004

VQLIMQLMP [TM1013]
EZ_mean [1, 10]: -0.1096 | EASY_mean ([2]; […], mean, STDEV): -0.03636

VQLIMQLMPF [TM1023]
EZ_mean [1, 11]: -0.03531 | Norm_mean [1, 11]: -0.02177 | EASY_mean ([2]; […], mean, STDEV): -0.02163

VQLIMQLMPFG [TM1034]
EZ_mean [1]: -0.1329 | EASY_mean ([2]; ELISA signal, mean, […]): -0.07888

VQLIMQLMPFGC [TM1045]
EZ_mean [1]: -0.1164 | EASY_mean ([2]; ELISA signal, mean, […]): -0.05081

VQLITQLMPFGS [CS1039]
EZ_mean [1]: -0.04039 | EASY_mean [2]: -0.02003
